# Measurements taken from paper PMC6527222 (PLoS ONE, 2019).
# Assays:
# [1] = system: JB6 P+ cells; experiment: Anchorage-independent growth assay in soft agar (EGF-induced JB6 P+ colony formation); format: cell-based, mouse
# Procedure: Ten ng/mL EGF was used to promote the anchorage-independent growth of JB6 cells. […] Plates were incubated at 37°C, 5% CO2 for 14 days. Colonies with greater than ten cells were counted manually under a microscope. […] Normalization allowed for comparison of data over a range of JB6 P+ cell cultures, passages, and experimental time for the shRNA studies, as well as control for variation in the EGF response, and importantly allowed for a direct comparison to all concentration-response experiments including the toxicity assays. […] All group sizes were determined via previous studies to provide statistically meaningful data. In the soft agar assays, key results were repeated with different JB6 P+ cells to confirm the results. Similarly, the shRNA studies were conducted with three independent concentration-response curves with different JB6 P+ cell stocks. […] For two sample comparisons a t-test was utilized, and when comparing multiple samples a One-, Two-, or Three-Factor ANOVA followed by Tukey-Kramer post hoc test was utilized depending on the data. For all tests, statistical difference was donated when p < 0.05. […] The I[…]*PSD is expressed in x-axis units (log [M]) as is an IC50 and it represents the first concentration where it is expected to observe a statistical decrease in the measured signal. […] Using the formula provided by GraphPad Prism or a straight line for the point-to-point graphs, the X-axis value for point Y was determined. The error is ascribed to this measurement via adding and subtracting the pooled standard deviation (PSD) to/from point Y generating point Y ± PSD. The two new points were then transformed to the X-axis units as was done for point Y creating an asymmetric error in sigmoidal plots. When the error was asymmetric, the larger error value was chosen to err on the conservative side. See S1 Fig for a pictoral explination of the method. The data is presented as I[…]*PSD ± error.
# [2] = system: JB6 P+ cells; experiment: SRB cytotoxicity assay; format: cell-based, mouse; settings: 72 hr; NT = no toxicity at any concentration tested
# Procedure: 96-well plates were seeded with 3x10^3 JB6 P+ cells per well and allowed to attach overnight. […] Cell viability was determined using Sulforhodamine B (SRB) assay from Sigma-Aldrich according to the manufacturer’s protocol. Cellular protein content was measured using a Bio-Tek μQuant plate reader with KCJunior software.
# Concentration-response curves were normalized so that the EGF positive control on each 96-well plate was set to 100% and the control wells on each plate were set to 0%. Toxicity assays (SRB and MTS) were normalized so that the control on each plate represented 100% viability. Normalization allowed for comparison of data over a range of JB6 P+ cell cultures, passages, and experimental time for the shRNA studies, as well as control for variation in the EGF response, and importantly allowed for a direct comparison to all concentration-response experiments including the toxicity assays. […] All group sizes were determined via previous studies to provide statistically meaningful data. In the soft agar assays, key results were repeated with different JB6 P+ cells to confirm the results. Similarly, the shRNA studies were conducted with three independent concentration-response curves with different JB6 P+ cell stocks. […] For two sample comparisons a t-test was utilized, and when comparing multiple samples a One-, Two-, or Three-Factor ANOVA followed by Tukey-Kramer post hoc test was utilized depending on the data. For all tests, statistical difference was donated when p < 0.05.
# The IΔ2*PSD is expressed in x-axis units (log [M]) as is an IC50 and it represents the first concentration where it is expected to observe a statistical decrease in the measured signal.
# Using the formula provided by GraphPad Prism or a straight line for the point-to-point graphs, the X-axis value for point Y was determined. The error is ascribed to this measurement via adding and subtracting the pooled standard deviation (PSD) to/from point Y generating point Y ± PSD. The two new points were then transformed to the X-axis units as was done for point Y creating an asymmetric error in sigmoidal plots. When the error was asymmetric, the larger error value was chosen to err on the conservative side. See S1 Fig for a pictoral explination of the method. The data is presented as IΔ2*PSD ± error.
smiles,measurement,setting,value
COc1ccccc1OCCNCC(O)COc1cccc2[nH]c3ccccc3c12 (stereo not shown) [Carvedilol],Soft Agar Assay Log IC50,"[1]; 10 ng/mL EGF, 14 days, negative log value",-6.61 ± 0.06 log [M]
same,IC50,"[1]; Mus musculus, 336 h, 10 ng/mL EGF, 14 days, negative log value, read-out: Soft Agar Assay Log IC50 (converted)",251 nM
same,Emax,"[1]; Mus musculus, efficacy of inhibition of colony formation, reported if non-toxic",94.7 ± 4.31%
same,SRB Assay Log IΔ2*PSD,[2],-4.89 ± 0.09 log [M]
